Active and inactive are the calls of the source. No cut-off for these calls is given here.

Activity and inhibition data for four compounds are collected here from ChEMBL document CHEMBL3351554, “Benzophenone C- and O-glucosides from Cyclopia genistoides (Honeybush) inhibit mammalian α-glucosidase” (2014).

For one assay, the system named is L6. Briefly: Increase in [3H]-2-DOG uptake in rat L6 cells at 10 uM after 1 hr by liquid scintillation counting relative to vehicle-treated control. Type of assay: functional.
The next assay deals with HepG2/C3A. Briefly: Increase in [3H]-2-DOG uptake in human HepG2/C3A cells at 0.001 to 100 uM after 3 hr by liquid scintillation counting relative to vehicle-treated control.
The test system of the next assay is 3T3-L1. Briefly: Increase in [3H]-2-DOG uptake in mouse 3T3L1 cells at 0.001 to 100 uM after 3 hrs by liquid scintillation counting relative to vehicle-treated control.
The species named for assay [1] is Rattus norvegicus. Put plainly: Inhibition of rat intestinal alpha-glucosidase using 7-O-alpha-D-glucopyranosyl 4-methylumbelliferone preincubated for 15 mins at 200 uM prior substrate addition measured over 30 mins by fluorescence assay.
Assay [2] is filed under the species Rattus norvegicus. Put plainly: Inhibition of rat intestinal alpha-glucosidase using 7-O-alpha-D-glucopyranosyl 4-methylumbelliferone preincubated for 15 mins at 100 to 400 uM prior substrate addition measured over 30 mins by fluorescence assay.
The species entered for assay [3] is Rattus norvegicus. Briefly: Inhibition of rat intestinal alpha-glucosidase using 7-O-alpha-D-glucopyranosyl 4-methylumbelliferone preincubated for 15 mins at 50 to 200 uM prior substrate addition measured over 30 mins by fluorescence assay.

Turning to `O=C(c1ccc(O)cc1)c1c(O)cc(O[C@@H]2O[C@H](CO)[C@@H](O)[C@H](O)[C@H]2O)c([C@@H]2O[C@H](CO)[C@@H](O)[C@H](O)[C@H]2O)c1O`, the Activity in the assay with L6 was 22%. Also, the outcome in the assay on HepG2/C3A and in the assay with 3T3-L1 was Active. In the assay filed under Rattus norvegicus [1], this compound had an inhibition of 43%. The inhibition result in the assay filed under Rattus norvegicus [2] is “Active”.
In the assay filed under Rattus norvegicus [1], `O=C(c1ccc(O)c(O)c1)c1c(O)cc(O)c([C@@H]2O[C@H](CO)[C@@H](O)[C@H](O)[C@H]2O)c1O` registered an inhibition of 54%.
For the compound `O=C(c1ccc(O)cc1)c1c(O)cc(O)c([C@@H]2O[C@H](CO)[C@@H](O)[C@H](O)[C@H]2O)c1O`, the outcome with HepG2/C3A and in the assay on 3T3-L1 was Active. The inhibition entry in the assay filed under Rattus norvegicus [2] was “Active”.
On to `O=C(c1ccc(O)c(O)c1)c1c(O)cc(O)cc1O`, for which, in the assay filed under Rattus norvegicus [3], the inhibition result is “inactive”.

A word on the inhibition: it is the share of the control response that was lost under treatment.
